From DBAASP
Values after ≈ are worked out from the molar mass of the structure shown. Values belong to the molecule of their own block, whether it stands above or below them.

How the values were obtained:
Experiment in all cases: ≥ marks a high value that may be exact or a test limit, other limits are often not marked, values filed in µg/mL are converted to µM
[1] = test system: Enterococcus faecalis 981
[2] = test system: Escherichia coli ATCC 25922
[3] = test system: Psychrobacter faecalis X29
Serratia rubidaea X01 = test system: Serratia rubidaea X01
[4] = test system: Candida albicans ATCC 10231
[5] = test system: Rhodococcus rhodochrous X15
[6] = test system: Staphylococcus carnosus KHS
[7] = test system: Bacillus licheniformis X39
[8] = test system: Staphylococcus aureus ATCC 25923
Candida albicans 3153A = test system: Candida albicans 3153A
Escherichia coli O157:H7 = test system: Escherichia coli O157:H7
[9] = test system: Staphylococcus aureus 1056
Acinetobacter sp. = test system: Acinetobacter sp.
Klebsiella sp. = test system: Klebsiella sp.
[10] = test system: Staphylococcus aureus NCTC 10571
[11] = test system: Escherichia coli NCTC 8007
Klebsiella aerogenes = test system: Klebsiella aerogenes
[12] = test system: Escherichia coli NCTC 10418
Proteus mirabilis = test system: Proteus mirabilis
Providencia stuartii = test system: Providencia stuartii
[13] = test system: Pseudomonas aeruginosa ATCC 9027
Staphylococcus aureus = test system: Staphylococcus aureus
[14] = test system: Staphylococcus aureus ATCC 9144
[15] = test system: Candida glabrata ATCC 15126
Escherichia coli = test system: Escherichia coli
Listeria innocua = test system: Listeria innocua
[16] = test system: Escherichia coli ATCC 23506
[17] = test system: Streptococcus pneumoniae ATCC 49619
Pasteurella multocida = test system: Pasteurella multocida
[18] = test system: Enterococcus faecalis PCM 2673
[19] = test system: Staphylococcus epidermidis
[20] = test system: Aspergillus niger ATCC 16404
Micrococcus luteus = test system: Micrococcus luteus
Leuconostoc lactis = test system: Leuconostoc lactis
Bacillus cereus = test system: Bacillus cereus
Streptococcus uberis = test system: Streptococcus uberis
[21] = test system: Klebsiella pneumoniae ATCC 700603
[22] = test system: Staphylococcus aureus ATCC 2592
[23] = test system: Pseudomonas aeruginosa 1.50
Pseudomonas haemolytica = test system: Pseudomonas haemolytica

MIC [1]: 19 µM (≈ 49.1 µg/mL) | MIC [2]: 150 µM (≈ 388 µg/mL) | MIC [3]: 19 µM (≈ 49.1 µg/mL) | MIC (Serratia rubidaea X01): 19 µM (≈ 49.1 µg/mL) | MIC [4]: 150 µM (≈ 388 µg/mL) | MIC [5]: 1.2 µM (≈ 3.1 µg/mL) | MIC [6]: 9 µM (≈ 23.3 µg/mL) | MIC [7]: 9 µM (≈ 23.3 µg/mL) | MIC [8]: 9 µM (≈ 23.3 µg/mL)
Compound: CC[C@H](C)[C@H](NC(=O)[C@H](CCCCN)NC(=O)[C@@H]1CCCN1C(=O)[C@H](CC(C)C)NC(=O)[C@H](Cc1ccccc1)NC(=O)[C@H](CC(N)=O)NC(=O)[C@H](C)NC(=O)[C@H](C)NC(=O)[C@H](CC(C)C)NC(=O)CNC(=O)[C@H](C)NC(=O)[C@@H](NC(=O)[C@@H](NC(=O)[C@@H]1CCCN1C(=O)[C@H](CC(C)C)NC(=O)[C@@H](N)Cc1ccccc1)[C@@H](C)CC)C(C)C)C(=O)N[C@H](C(=O)N[C@H]1CSSC[C@@H](C(=O)O)NC(=O)[C@H](CCCCN)NC(=O)[C@H](CCCCN)NC(=O)[C@H]([C@@H](C)O)NC(=O)[C@H]([C@@H](C)CC)NC(=O)[C@H](CCCCN)NC1=O)C(C)C [FLPIVAGLAANFLPKIVCKITKKC]

MIC (Candida albicans 3153A): 1.32 µM (≈ 6.19 µg/mL) | MIC (Escherichia coli O157:H7): 0.205 µM (≈ 0.959 µg/mL) | MIC [9]: 0.267 µM (≈ 1.25 µg/mL)
Compound: CC[C@H](C)[C@H](NC(=O)[C@H](CC(N)=O)NC(=O)[C@H](CCCCN)NC(=O)[C@@H]1CSSC[C@@H]2NC(=O)[C@H](CCCCN)NC(=O)[C@H](CC(C)C)NC(=O)[C@H](Cc3ccccc3)NC(=O)CNC(=O)[C@@H]3CSSC[C@H](NC(=O)[C@H](CCCCN)NC(=O)CNC(=O)[C@H](CO)NC(=O)[C@H](C(C)C)NC(=O)[C@H](C(C)C)NC(=O)[C@H](Cc4ccccc4)NC(=O)[C@@H]4CCCN4C(=O)[C@H](Cc4ccccc4)NC(=O)[C@H](CO)NC2=O)C(=O)N[C@@H](CO)C(=O)N[C@@H](CCCN=C(N)N)C(=O)N[C@@H](Cc2ccccc2)C(=O)N[C@@H](Cc2ccccc2)C(=O)N[C@@H](Cc2ccccc2)C(=O)N[C@@H](CSSC[C@H](NC(=O)[C@H](CCC(=O)O)NC(=O)[C@H](C)NC(=O)[C@H](CCCCN)NC(=O)[C@H](CC(N)=O)NC(=O)CNC(=O)[C@@H]2CCCN2C(=O)[C@H](C)N)C(=O)N[C@@H](CCC(=O)O)C(=O)N[C@@H](CCCN=C(N)N)C(=O)N[C@@H](CCC(=O)O)C(=O)N[C@@H](CCCCN)C(=O)NCC(=O)N[C@@H](Cc2ccc(O)cc2)C(=O)N3)C(=O)N1)C(=O)N[C@@H](Cc1c[nH]c2ccccc12)C(=O)O [APGNKAECEREKGYCGFLKCSFPFVVSGKCSRFFFCCKNIW]

MIC (Acinetobacter sp.): 0.86 µM (≈ 1.33 µg/mL) | MIC (Klebsiella sp.): ≥ 290 µM | MIC [10]: 14 µM (≈ 21.7 µg/mL) | MIC [11]: ≥ 290 µM | MIC (Klebsiella aerogenes): ≥ 290 µM | MIC [12]: ≥ 579 µM | MIC (Proteus mirabilis): ≥ 1000 µM | MIC (Providencia stuartii): ≥ 1000 µM
Compound: CSCC[C@H](NC(=O)[C@H](CC(N)=O)NC(=O)[C@H](CCCN=C(N)N)NC(=O)[C@H](CCC(N)=O)NC(=O)[C@H](Cc1c[nH]c2ccccc12)NC(=O)[C@H](CCC(N)=O)NC(=O)[C@@H](N)Cc1ccccc1)C(=O)N[C@@H](CCCN=C(N)N)C(=O)N[C@@H](CCCCN)C(=O)N[C@H](C(=O)N[C@@H](CCCN=C(N)N)C(=O)O)C(C)C [FQWQRNMRKVR]

MIC [13]: > 158 µM | MIC (Staphylococcus aureus): 30.9 µM (≈ 50 µg/mL) | MIC [2]: 39.6 µM (≈ 64 µg/mL) | MIC [14]: ≥ 39.6 µM | MIC [15]: ≥ 158 µM | MIC (Escherichia coli): > 61.9 µM | MIC (Listeria innocua): ≥ 61.9 µM | MIC [16]: ≥ 79.2 µM | MIC [17]: ≥ 79.2 µM | MIC (Pasteurella multocida): ≥ 61.9 µM | MIC [18]: ≥ 79.2 µM | MIC [4]: 79.2 µM (≈ 128 µg/mL) | MIC [19]: ≥ 61.9 µM | MIC [20]: ≥ 158 µM | MIC (Micrococcus luteus): ≥ 61.9 µM | MIC (Leuconostoc lactis): 7.43 µM (≈ 12 µg/mL) | MIC (Bacillus cereus): ≥ 61.9 µM | MIC [8]: 39.6 µM (≈ 64 µg/mL) | MIC (Streptococcus uberis): 30.9 µM (≈ 50 µg/mL) | MIC [21]: 19.8 µM (≈ 32 µg/mL)
Compound: CC[C@H](C)[C@H](NC(=O)CNC(=O)CNC(=O)[C@@H](N)CC(C)C)C(=O)N[C@H](C(=O)N[C@@H](CO)C(=O)N[C@@H](C)C(=O)N[C@H](C(=O)N[C@@H](CCCCN)C(=O)N[C@@H](CCCCN)C(=O)N[C@H](C(=O)N[C@H](C(=O)N[C@@H](CC(=O)O)C(=O)N[C@@H](Cc1ccccc1)C(=O)N[C@@H](CC(C)C)C(=O)NCC(N)=O)C(C)C)[C@@H](C)CC)C(C)C)C(C)C [LGGIVSAVKKIVDFLG]

MIC [2]: 30 µM (≈ 101 µg/mL) | MIC [3]: 1.9 µM (≈ 6.4 µg/mL) | MIC (Serratia rubidaea X01): ≥ 60 µM | MIC [22]: 3.8 µM (≈ 12.8 µg/mL) | MIC [5]: 1.9 µM (≈ 6.4 µg/mL) | MIC [6]: 1.9 µM (≈ 6.4 µg/mL) | MIC [7]: 3.8 µM (≈ 12.8 µg/mL) | MIC [23]: 30 µM (≈ 101 µg/mL)
Compound: CC[C@H](C)[C@H](NC(=O)CNC(=O)[C@@H](NC(=O)CNC(=O)[C@H](C)NC(=O)CNC(=O)[C@H](CCCN=C(N)N)NC(=O)[C@H](C)NC(=O)[C@@H](NC(=O)CNC(=O)[C@H](CC(C)C)NC(=O)[C@H](C)NC(=O)[C@@H](NC(=O)[C@H](CC(N)=O)NC(=O)[C@H](CCCCN)NC(=O)[C@@H](NC(=O)[C@H](CCCCN)NC(=O)[C@H](CC(=O)O)NC(=O)[C@H](CC(C)C)NC(=O)[C@@H](NC(=O)[C@@H](N)CO)[C@@H](C)CC)[C@@H](C)CC)C(C)C)C(C)C)[C@@H](C)O)C(=O)N[C@@H](CC(C)C)C(=O)N[C@@H](CCCCN)C(=O)N[C@@H](C)C(=O)N[C@@H](CC(C)C)C(=O)N[C@@H](CC(C)C)C(=O)N[C@H]1CSSC[C@@H](C(=O)O)NC(=O)[C@H](CO)NC(=O)[C@H](CCCCN)NC(=O)[C@H](CC(=O)O)NC(=O)[C@H](CC(C)C)NC(=O)[C@H](CCCCN)NC1=O [SILDKIKNVALGVARGAGTGILKALLCKLDKSC]

MIC (Escherichia coli): 21.3 µM (≈ 50 µg/mL) | MIC (Micrococcus luteus): 2.56 µM (≈ 6 µg/mL)
Compound: CC[C@H](C)[C@H](NC(=O)CNC(=O)[C@H](CO)NC(=O)[C@H](C)NC(=O)[C@H](CC(C)C)NC(=O)[C@H](CC(=O)O)NC(=O)CNC(=O)[C@H](C)NC(=O)[C@H](C)NC(=O)[C@H](CO)NC(=O)[C@H](CCCCN)NC(=O)[C@@H](NC(=O)[C@H](CCCCN)NC(=O)[C@H](CCC(N)=O)NC(=O)[C@H](Cc1c[nH]c2ccccc12)NC(=O)[C@H](CC(C)C)NC(=O)CN)[C@@H](C)CC)C(=O)N[C@H](C(=O)N[C@@H](CCC(=O)O)C(=O)N[C@@H](C)C(=O)N[C@H](C(=O)N[C@@H](CCCCN)C(=O)N[C@@H](CO)C(N)=O)[C@@H](C)CC)C(C)C [GLWQKIKSAAGDLASGIVEAIKS]
MIC (Pseudomonas haemolytica): 0.171 µM (≈ 0.4 µg/mL)
